Data reported in paper PMC12389534, “Unlocking Therapeutic Potential of Novel Thieno-Oxazepine Hybrids as Multi-Target Inhibitors of AChE/BChE and Evaluation Against Alzheimer’s Disease: In Vivo, In Vitro, Histopathological, and Docking Studies” (Pharmaceuticals, 2025).

Key:
SOD = experiment: Brain SOD activity (colorimetric); type: in vivo, rat; conditions: brain tissue, AlCl3-induced AD rats; mean ± SE, n = 6
Description: (§1) The brain tissues of the rats were removed and rigorously washed in isotonic saline 24 h after they were euthanized following the last behavioral test. For histological investigation, four brains per group were preserved for the whole night in 10% neutral buffered formalin. The remaining six brains were split into two sections each. In order to create a 10% homogenate (w/v), the first component was instantaneously homogenized using an ice-cold solution that included 300 mM sucrose and 50 mM Tris-HCl (pH 7.4). The homogenate was centrifuged at 1800× g for 10 min at 4 °C for biochemical tests, and the supernatant was thereafter kept at −20 °C. The second portion was set aside for use in RT-PCR analysis at −80 °C [94].
The SOD enzyme activity was estimated using the Marklund et al. method, which is founded on the enzyme’s capacity to decrease the nitro blue tetrazolium dye at a wavelength of 540 nm. To evaluate the TAC, a colorimetric approach was employed to estimate the amount of hydrogen peroxide that remains after 3,5-dichloro-2-hydroxybenzene sulphonate is converted to a colored product at 660 nm.

NFκβ = NFκβ mRNA expression (RT-qPCR); type: in vivo, rat; set-up: reduction of NFκβ mRNA expression: concentration or dose not given beside the values; conditions: AlCl3-induced AD rats; for NFκβ: mRNA expression level, mean ± SE, n = 6
Description: as §1
(§2) See Supplementary Information.

Caspase-1 = Caspase-1 gene expression (RT-qPCR); type: in vivo, rat; set-up: reduction of Caspase-1 levels: concentration or dose not given beside the values; conditions: AlCl3-induced AD rats; for Caspase-1: gene expression, mean ± SE, n = 6
Description: as §1, §2

NLRP3 = NLRP3 mRNA expression (RT-qPCR); type: in vivo, rat; set-up: reduction of NLRP3 mRNA expression: concentration or dose not given beside the values; conditions: AlCl3-induced AD rats; for NLRP3: mRNA expression level, mean ± SE, n = 6
Description: as §1, §2

DA = experiment: Brain DA level (fluorometric); type: in vivo, rat; conditions: AlCl3-induced AD rats; for DA (ng/g Tissue): brain tissue, mean ± SE, n = 6
Description: as §1
(§3) Brain monoamine levels were promptly assessed following the rats’ euthanasia to prevent changes in the substance’s concentration. Dopamine (DA), norepinephrine (NE), and serotonin (5-HT) fluorometric tests were conducted on brain tissue homogenate using the Ciarlone method. […] The concentrations were articulated as nanograms per gram of fresh tissue using the fluorescence of reference solutions [95].

MDA = experiment: Brain MDA content (thiobarbituric acid method); type: in vivo, rat; set-up: reduction in MDA brain content: concentration or dose not given beside the values; conditions: AlCl3-induced AD rats; for MDA (nmol/g Tissue): brain tissue, mean ± SE, n = 6
[1] = test system: AlCl3-induced AD rat model; experiment: Y-maze SAP test in AlCl3-induced AD rats; type: in vivo; conditions: for SAP%: mean ± SE, n = 6
In short: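 Spontaneous alternation performance measured in male Dawley rats (300–320 g) with AlCl3-induced AD, each allowed 8 min free exploration of a three-arm Y-maze. Arm entries counted with hind paws fully inside; SAP (%) = alternations/(total entries − 2) × 100.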

AChE = type: in vivo; set-up: reduction in AChE levels: concentration or dose not given beside the values; conditions: AlCl3-induced AD rats; for AChE (ng/g Tissue): brain tissue, mean ± SE, n = 6; for reduction in AChE levels: brain
BChE = target: T1, BChE (Homo sapiens, UniProt P06276); experiment: biochemical; conditions: for IC50: fluorescence kit, triplicate; for Selectivity Index BChE/AChE: ratio of IC50 BChE to IC50 AChE, <1 = preferential BChE inhibition
T1 construct: purchased Invitrogen EIABCHEF
T1 sequence (P06276 29-602): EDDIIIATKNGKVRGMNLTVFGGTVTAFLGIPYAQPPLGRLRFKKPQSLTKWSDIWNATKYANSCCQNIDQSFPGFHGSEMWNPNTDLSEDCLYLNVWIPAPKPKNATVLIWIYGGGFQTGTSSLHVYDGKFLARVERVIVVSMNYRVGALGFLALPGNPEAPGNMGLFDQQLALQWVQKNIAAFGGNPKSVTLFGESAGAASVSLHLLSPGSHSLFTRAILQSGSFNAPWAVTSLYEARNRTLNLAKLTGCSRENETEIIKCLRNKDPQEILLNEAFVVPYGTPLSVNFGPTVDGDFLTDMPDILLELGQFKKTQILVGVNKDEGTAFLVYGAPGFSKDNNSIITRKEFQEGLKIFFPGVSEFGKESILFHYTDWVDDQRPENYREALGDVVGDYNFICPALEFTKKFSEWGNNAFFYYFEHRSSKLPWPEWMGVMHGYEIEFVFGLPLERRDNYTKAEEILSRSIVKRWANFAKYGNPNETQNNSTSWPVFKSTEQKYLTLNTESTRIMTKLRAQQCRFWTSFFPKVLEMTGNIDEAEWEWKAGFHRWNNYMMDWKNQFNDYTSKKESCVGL
Description: Using an Invitrogen BChE test kit (Catalog #EIABCHEF), the assay was performed in compliance with the supplier’s instructions. The study was conducted using black 96-well plates. […] Each well was then filled with 50 μL of the reaction mixture, which consisted of fluorescence detection reagent and butyrylthiocholine iodide in assay buffer. The plate was then left to incubate for 20 min at room temperature. Finally, excitation at 390 nm was used to observe emission at 510 nm using a microplate reader. Background fluorescence was further eliminated for each data point.

Nrf-2 = Nrf-2 mRNA expression (RT-qPCR); type: in vivo, rat; conditions: AlCl3-induced AD rats; for Nrf-2: mRNA expression in brain tissue, mean ± SE, n = 6
Description: as §1, §2

Wnt3a = experiment: Brain Wnt3a level; type: in vivo, rat; conditions: AlCl3-induced AD rats; for Wnt3a (ng/g Tissue): mean ± SE, n = 6
Description: as §1, §2

IL-1β = experiment: Brain IL-1β level (ELISA); type: in vivo, rat; set-up: reduction in IL-1β levels: concentration or dose not given beside the values; conditions: AlCl3-induced AD rats; for IL-β (pg/g Tissue): mean ± SE, n = 6
Description: as §1, with “[94]. […]” for “[94].”

BAX = BAX gene expression (RT-qPCR); type: in vivo, rat; conditions: AlCl3-induced AD rats; for BAX: gene expression, mean ± SE, n = 6
Description: as §1, §2

NE = experiment: Brain NE level (fluorometric); type: in vivo, rat; conditions: AlCl3-induced AD rats; for NE (nmol/g Tissue): brain tissue, mean ± SE, n = 6
Description: as §1, §3

Amyloid-β = experiment: Brain amyloid-β level (ELISA); type: in vivo, rat; set-up: reduction of β-amyloid levels: concentration or dose not given beside the values; conditions: AlCl3-induced AD rats; for Amyloid-β (ng/g Tissue): brain, mean ± SE, n = 6
Description: as §1, §2

BACE1 = experiment: Brain BACE1 level (ELISA); type: in vivo, rat; set-up: reduction of BACE1 levels: concentration or dose not given beside the values; conditions: AlCl3-induced AD rats; for BACE1 (ng/mL): mean ± SE, n = 6
Description: as §1, with “[94]. […]” for “[94].”

5-HT = experiment: Brain 5-HT level (fluorometric); type: in vivo, rat; conditions: AlCl3-induced AD rats; for 5-HT (ng/g Tissue): brain tissue, mean ± SE, n = 6
Description: as §1, §3

SMILES	SOD(U/g) (SOD)	reduction of NFκβ mRNA expression (NFκβ) [%]	NFκβ (NFκβ)	reduction of Caspase-1 levels (Caspase-1) [%]	Caspase-1 (Caspase-1)	reduction of NLRP3 mRNA expression (NLRP3) [%]	NLRP3 (NLRP3)	elevation of DA levels (DA) [fold]	DA (ng/g Tissue) (DA)	reduction in MDA brain content (MDA) [%]	MDA (nmol/g Tissue) (MDA)	SAP% [1]	AChE (ng/g Tissue) (AChE)	reduction in AChE levels (AChE) [%]	IC50 (BChE) [µM]	Selectivity Index BChE/AChE (BChE)	elevation of Nrf-2 mRNA expression (Nrf-2) [fold]	Nrf-2 (Nrf-2)	elevation of Wnt3a levels (Wnt3a) [fold]	Wnt3a (ng/g Tissue) (Wnt3a)	also measured
O=C1CN(c2ccc(O)cc2)C(=O)c2c(sc3c2CCCCC3)O1 [Compound 15, 4-(4-Hydroxyphenyl)-3,4,7,8,9,10-hexahydro-6H-cyclohepta[4,5]thieno[3,2-f][1,4]oxa-zepine-2,5-dione]	2.56 ± 0.54 ^abc U/g	64.8	2.98 ± 0.10 ^abc	69.1	2.94 ± 0.110 ^abc	68.5	3.36 ± 0.12 ^abc	3.8	44.92 ± 2.85 ^abc ng/g Tissue	45.2	63.68 ± 0.12 ^abc nmol/g Tissue	82.5 ± 0.89 ^abc %	25.73 ± 0.37 ^abc ng/g Tissue	61.8	0.7 ± 0.02	0.44	5.1	0.82 ± 0.020 ^abc	7.3	0.88 ± 0.01 ^abc ng/g Tissue	increase in SAP% [1]: ~34.8%; reduction in IL-1β levels (IL-1β): 61.1%; IL-β (pg/g Tissue) (IL-1β): 45.66 ± 1.03 ^abc pg/g Tissue; BAX (BAX): 4.47 ± 0.040 ^abc; rise in the level of NE (NE): 2.7 times; NE (nmol/g Tissue) (NE): 499.8 ± 2.85 ^abc nmol/g Tissue; reduction of β-amyloid levels (Amyloid-β): 73.2%; Amyloid-β (ng/g Tissue) (Amyloid-β): 7.46 ± 0.9 ^abc ng/g Tissue; reduction of BACE1 levels (BACE1): 64.6%; BACE1 (ng/mL) (BACE1): 10.50 ± 0.2 ^abc ng/mL; elevation of 5-HT levels (5-HT): 3.7 fold; 5-HT (ng/g Tissue) (5-HT): 6.77 ± 0.22 ^abc ng/g Tissue
COc1ccc(N2CC(=O)Oc3sc4c(c3C2=O)CCCCC4)cc1 [Compound 16, 4-(4-Methoxyphenyl)-3,4,7,8,9,10-hexahydro-6H-cyclohepta[4,5]thieno[3,2-f][1,4]oxa-zepine-2,5-dione]	2.92 ± 0.20 ^abc U/g	44.5	4.70 ± 0.12 ^abc	47	5.04 ± 0.130 ^abc	59.5	4.32 ± 0.10 ^abc	4.4	52.96 ± 1.52 ^abc ng/g Tissue	72.8	31.63 ± 0.05 ^abc nmol/g Tissue	71.67 ± 1.15 ^abc %	16.83 ± 0.29 ^abc ng/g Tissue	75	5.23 ± 0.18	6.89	2.9	0.47 ± 0.005 ^abc	5.5	0.52 ± 0.01 ^abc ng/g Tissue	reduction in IL-1β levels (IL-1β): 55.2%; IL-β (pg/g Tissue) (IL-1β): 53.04 ± 0.61 ^abc pg/g Tissue; suppression of BAX gene expression (BAX): 36.5%; BAX (BAX): 6.14 ± 0.090 ^abc; rise in the level of NE (NE): 2 times; NE (nmol/g Tissue) (NE): 366.4 ± 1.52 ^abc nmol/g Tissue; reduction of β-amyloid levels (Amyloid-β): 55.4%; Amyloid-β (ng/g Tissue) (Amyloid-β): 12.44 ± 0.14 ^abc ng/g Tissue; BACE1 (ng/mL) (BACE1): 17.44 ± 0.23 ^abc ng/mL; elevation of 5-HT levels (5-HT): 5.9 fold; 5-HT (ng/g Tissue) (5-HT): 10.65 ± 0.71 ^abc ng/g Tissue
